Test results taken from patent US20230011869A1 (Hoffmann-La Roche Inc., priority 2018, published 2023).
Counter-ions that a name gives are not always drawn.

The compounds below were run on Acinetobacter baumannii ATCC17978 (assay: Antimicrobial susceptibility testing: 90% growth inhibitory concentration (IC90) determination, Iso-Sensitest broth). Conditions: 90% growth inhibitory concentration, Acinetobacter baumannii ATCC17978, Iso-Sensitest broth, OD 600 nm over 16 h; read-out: ATCC17978 IC90.
Format: cell-based
In short: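 A. baumannii ATCC17978 grown in Iso-Sensitest broth across 10 compound concentrations at 35±2 °C.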
COc1ccc(-c2cnc3c(Nc4ccc(C(=O)N5CCC(CN)CC5)c(C(F)F)c4)nccn23)cc1F [Example 340, [4-(aminomethyl)piperidin-1-yl]-[2-(difluoromethyl)-4-[[3-(3-fluoro-4-methoxyphenyl)imidazo[1,2-a]pyrazin-8-yl]amino]phenyl]methanone] gave an IC90 of 500 nM.

Same assay, conditions: Acinetobacter baumannii, ATCC17978, 16 h, read-out: ATCC17978 IC90, 90% growth inhibitory concentration, Acinetobacter baumannii ATCC17978, Iso-Sensitest broth, OD 600 nm over 16 h
For Cc1cc(Nc2nccn3c(-c4ccc(OC(F)F)cc4)cnc23)ccc1C(=O)N1CCC(C(=O)N2CCNC(C)(C)C2)CC1 [Example 323, [4-[[3-[4-(difluoromethoxy)phenyl]imi-dazo[1,2-a]pyrazin-8-yl]amino]-2-methylphenyl]-[4-(3,3-dimethylpiperazin-1-carbonyl)piperidin-1-yl]methanone; hydrochloride], the IC90 was 300 nM.
Cc1cc(Nc2nccn3c(-c4ccc(OC(F)F)cc4)cnc23)ccc1C(=O)N1CCN(C(=O)C2(F)CCNCC2)CC1 [Example 324, [4-[[3-[4-(difluoromethoxy)phenyl]imi-dazo[1,2-a]pyrazin-8-yl]amino]-2-methylphenyl]-[4-(4-fluoropiperidine-4-carbonyl)piperazin-1-yl]methanone] was tested, and the IC90 was 330 nM.
Cc1cc(Nc2nccn3c(-c4ccc(OC(F)F)cc4)cnc23)ccc1C(=O)N1CCC(C(=O)N2CCCNCC2)CC1 [Example 325, [4-(1,4-diazepane-1-carbonyl)piperidin-1-yl]-[4-[[3-[4-(difluoromethoxy)phenyl]imi-dazo[1,2-a]pyrazin-8-yl]amino]-2-methylphenyl]methanone; hy-drochloride] gave an IC90 of 340 nM.
Cc1cc(Nc2nccn3c(-c4ccc(OC(F)F)cc4)cnc23)ccc1C(=O)N1CCC(C(=O)N2C[C@@H](O)[C@@H](O)[C@@H](O)C2)CC1 [Example 326, [4-[[3-[4-(difluoromethoxy)phenyl]imi-dazo[1,2-a]pyrazin-8-yl]amino]-2-methylphenyl]-[4-[rac-(3R,5S)-3,4,5-trihydroxypiperidine-1-carbonyl]piperidin-1-yl]methanone] was tested, and the IC90 was 360 nM.
With Cc1cc(Nc2nccn3c(-c4ccc(OC(F)F)cc4)cnc23)ccc1C(=O)N1CCN(C(=O)C[C@H](C)N)CC1 [Example 327, (3S)-3-amino-1-[4-[4-[[3-[4-(difluoromethoxy)phenyl]imi-dazo[1,2-a]pyrazin-8-yl]amino]-2-methylbenzoyl]piperazin-1-yl]butan-1-one; hydrochloride] the IC90 was 380 nM.
COc1ccc(-c2cnc3c(Nc4ccc(C(=O)N5CCC(C(=O)NCC6CNC6)CC5)c(C)c4)nccn23)cc1F [Example 328, N-(azetidin-3-ylmethyl)-1-[4-[[3-(3-fluoro-4-methoxyphenyl)imidazo[1,2-a]pyrazin-8-yl]amino]-2-methylbenzoyl]piperidine-4-carboxamide; hydrochloride] showed an IC90 of 390 nM.
With Cc1cc(Nc2nccn3c(-c4ccc(OC(F)F)cc4)cnc23)ccc1C(=O)N1CCN(C(=O)CC(C)(C)N)CC1 [Example 329, 3-amino-1-[4-[4-[[3-[4-(difluoromethoxy)phenyl]imi-dazo[1.2-a]pyrazin-8-yl]amino]-2-methylbenzoyl]piperazin-1-yl]-3-methylbutan-1-one; hydrochloride] the IC90 was 400 nM.
Compound CCc1cc(Nc2nccn3c(-c4ccc(OC)c(F)c4)cnc23)ccc1C(=O)N1CCC(C(=O)NCCNC)CC1 [Example 330, 1-[2-ethyl-4-[[3-(3-fluoro-4-methoxyphenyl)imidazo[1,2-a]pyrazin-8-yl]amino]benzoyl]-N-[2-(methylamino)ethyl]piperidine-4-carboxamide; hydrochloride] has an IC90 of 400 nM.
With CNCCC(=O)N1CCN(C(=O)c2ccc(Nc3nccn4c(-c5ccc(OC(F)F)cc5)cnc34)cc2C)CC1 [Example 332, 1-[4-[4-[[3-[4-(difluoromethoxy)phenyl]imi-dazo[1,2-a]pyrazin-8-yl]amino]-2-methylbenzoyl]piperazin-1-yl]-3-(methylamino)propan-1-one; hydrochloride] the IC90 was 410 nM.
Compound CN[C@H](C)C(=O)N1CCN(C(=O)c2ccc(Nc3nccn4c(-c5ccc(OC(F)F)cc5)cnc34)cc2C)CC1 [Example 334, (2R)-1-[4-[4-[[3-[4-(difluoromethoxy)phenyl]imi-dazo[1,2-a]pyrazin-8-yl]amino]-2-methylbenzoyl]piperazin-1-yl]-2-(methylamino)propan-1-one; hydrochloride] has an IC90 of 430 nM.
Compound Cc1cc(Nc2nccn3c(-c4ccc(OC(F)F)cc4)cnc23)ccc1C(=O)N1CCN(C(=O)C2CNC2)CC1 [Example 335, [4-(azetidine-3-carbonyl)piperazin-1-yl]-[4-[[3-[4-(difluoromethoxy)phenyl]imi-dazo[1,2-a]pyrazin-8-yl]amino]-2-methylphenyl]methanone; hy-drochloride] has an IC90 of 450 nM.
With Cc1cc(Nc2nccn3c(-c4ccc(OC(F)F)cc4)cnc23)ccc1C(=O)N1CCN(C(=O)C[C@@H]2CCCN2)CC1 [Example 336, 1-[4-[4-[[3-[4-(difluoromethoxy)phenyl]imi-dazo[1,2-a]pyrazin-8-yl]amino]-2-methylbenzoyl]piperazin-1-yl]-2-[(2S)-pyrrolidin-2-yl]ethanone] the IC90 was 460 nM.
Cc1cc(Nc2nccn3c(-c4ccc(OC(F)F)cc4)cnc23)ccc1C(=O)N1CCN(C(=O)c2ccc(CN3CCNCC3)cc2)CC1 [Example 337, [4-[4-[[3-[4-(difluoromethoxy)phenyl]imi-dazo[1,2-a]pyrazin-8-yl]amino]-2-methylbenzoyl]piperazin-1-yl]-[4-(piperazin-1-ylmethyl)phenyl]methanone; hydrochloride] gave an IC90 of 470 nM.
CC(=O)NCCCC[C@H](N)C(=O)N1CCN(C(=O)c2ccc(Nc3nccn4c(-c5ccc(OC(F)F)cc5)cnc34)cc2C)CC1 [Example 338, N-[(5S)-5-amino-6-[4-[4-[[3-[4-(difluoromethoxy)phenyl]imi-dazo[1,2-a]pyrazin-8-yl]amino]-2-methylbenzoyl]piperazin-1-yl]-6-oxohexyl]acetamide; hydrochloride] was tested, and the IC90 was 480 nM.
For Cc1cc(Nc2nccn3c(-c4ccc(OC(F)F)cc4)cnc23)ccc1C(=O)N1CCN(C(=O)C(C)(C)N)CC1 [Example 339, 2-amino-1-[4-[4-[[3-[4-(difluoromethoxy)phenyl]imi-dazo[1,2-a]pyrazin-8-yl]amino]-2-methylbenzoyl]piperazin-1-yl]-2-methylpropan-1-one; hydrochloride], the IC90 was 500 nM.
For Cc1cc(Nc2nccn3c(-c4ccc(OC(F)F)cc4)cnc23)ccc1C(=O)N1CCN(C(=O)[C@@H]2CNCCO2)CC1 [Example 341, [4-[[3-[4-(difluoromethoxy)phenyl]imi-dazo[1,2-a]pyrazin-8-yl]amino]-2-methylphenyl]-[4-[(2S)-morpholine-2-carbonyl]piperazin-1-yl]methanone; hydrochloride], the IC90 was 520 nM.
Compound CCC[C@@H](N)C(=O)N1CCN(C(=O)c2ccc(Nc3nccn4c(-c5ccc(OC(F)F)cc5)cnc34)cc2C)CC1 [Example 342, (2R)-2-amino-1-[4-[4-[[3-[4-(difluoromethoxy)phenyl]imi-dazo[1,2-a]pyrazin-8-yl]amino]-2-methylbenzoyl]piperazin-1-yl]pentan-1-one; hydrochloride] has an IC90 of 550 nM.
With CCC[C@H](N)C(=O)N1CCN(C(=O)c2ccc(Nc3nccn4c(-c5ccc(OC(F)F)cc5)cnc34)cc2C)CC1 [Example 343, (2S)-2-amino-1-[4-[4-[[3-[4-(difluoromethoxy)phenyl]imi-dazo[1,2-a]pyrazin-8-yl]amino]-2-methylbenzoyl]piperazin-1-yl]pentan-1-one] the IC90 was 560 nM.
CCC(N)C(=O)N1CCN(C(=O)c2ccc(Nc3nccn4c(-c5ccc(OC(F)F)cc5)cnc34)cc2C)CC1 (centres unmarked) [Example 344, 2-amino-1-[4-[4-[[3-[4-(difluoromethoxy)phenyl]imi-dazo[1,2-a]pyrazin-8-yl]amino]-2-methylbenzoyl]piperazin-1-yl]butan-1-one; hydrochloride] gave an IC90 of 560 nM.
Cc1cc(Nc2nccn3c(-c4ccc(OC(F)F)cc4)cnc23)ccc1C(=O)N1CCN(C(=O)CNC(=O)CN)CC1 [Example 345, 2-amino-N-[2-[4-[4-[[3-[4-(difluoromethoxy)phenyl]imi-dazo[1,2-a]pyrazin-8-yl]amino]-2-methylbenzoyl]piperazin-1-yl]-2-oxoethyl]acetamide] gave an IC90 of 570 nM.
Compound Cc1cc(Nc2nccn3c(-c4ccc(OC(F)F)cc4)cnc23)ccc1C(=O)N1CCN(C(=O)C(O)CO)CC1 (centres unmarked) [Example 346, 1-[4-[4-[[3-[4-(difluoromethoxy)phenyl]imi-dazo[1,2-a]pyrazin-8-yl]amino]-2-methylbenzoyl]piperazin-1-yl]-2,3-dihydroxypropan-1-one] has an IC90 of 620 nM.
Work on Cc1cc(Nc2nccn3c(-c4ccc(OC(F)F)cc4)cnc23)ccc1C(=O)N1CCN(C(=O)CN2CCNCC2)CC1 [Example 347, 1-[4-[4-[[3-[4-(difluoromethoxy)phenyl]imi-dazo[1,2-a]pyrazin-8-yl]amino]-2-methylbenzoyl]piperazin-1-yl]-2-piperazin-1-ylethanone] yielded an IC90 of 650 nM.
COc1ccc(-c2cnc3c(Nc4ccc(C(=O)N5CCN(C6CCNC6)CC5)c(C)c4)nccn23)cc1F (centres unmarked) [Example 348, [4-[[3-(3-fluoro-4-methoxyphenyl)imidazo[1,2-a]pyrazin-8-yl]amino]-2-methylphenyl]-(4-pyrrolidin-3-ylpiperazin-1-yl)methanone; hydrochloride] was tested, and the IC90 was 660 nM.

Same assay, conditions: read-out: ATCC17978 IC90; 90% growth inhibitory concentration, Acinetobacter baumannii ATCC17978, Iso-Sensitest broth, OD 600 nm over 16 h
CNCC(=O)N1CCN(C(=O)c2ccc(Nc3nccn4c(-c5ccc(OC(F)F)cc5)cnc34)cc2C)CC1 [Example 331, 1-[4-[4-[[3-[4-(difluoromethoxy)phenyl]imi-dazo[1,2-a]pyrazin-8-yl]amino]-2-methylbenzoyl]piperazin-1-yl]-2-(methylamino)ethanone] showed an IC90 of 410 nM.
With Cc1cc(Nc2nccn3c(-c4ccc(OC(F)F)cc4)cnc23)ccc1C(=O)N1CCN(C(=O)CNC(=N)N)CC1 [Example 333, 1-[2-[4-[4-[[3-[4-(difluoromethoxy)phenyl]imi-dazo[1,2-a]pyrazin-8-yl]amino]-2-methylbenzoyl]piperazin-1-yl]-2-oxoethyl]guanidine] the IC90 was 410 nM.
